Source: patent publication US7651995B2, “Absorption enhancers such as e.g. BHT, BHA or propyl gallate” (Axcess Limited, priority 2003, dated 2010)

Tested on: Caco-2 cells
Assay: Trans-epithelial electrical resistance (TEER) across Caco-2 cell monolayer
Format: cell-based, human
Settings: Caco-2 monolayer; for TEER 15 minutes after addition: fall >50% of initial value considered significant; for TEER before addition: four replicates
Protocol: Caco-2 cells (a cell line derived from human colon adenocarcinoma) are grown as a confluent mono-layer on the surface of a porous membrane (pore size 0.4 μm, surface area 0.33 cm^2) separating two aqueous compartments, the upper compartment filled with 200 μl of culture medium, and the lower compartment containing 600 μl of the culture medium. Electrical resistance across the mono-layer is measured using an epithelial voltohmeter connected to electrodes inserted into the medium on either side of the mono-layer in the upper and lower compartments. This trans-epithelial electrical resistance (TEER) is measured immediately before, and fifteen minutes after the addition of aromatic alcohols to the upper compartment (typical results are given in the table below). Fall in TEER is considered indicative of the increased flow of materials (including bulk fluid phase) across the cell monolayer. Falls of greater than 50% of the initial value are considered significant. Reducing the concentration tends to reduce the effect observed.

[1] = agent 0.3 mg/ml in upper compartment
[2] = baseline immediately before addition of agent at 0.3 mg/ml

Row | SMILES | TEER 15 minutes after addition [1] [ohm · cm^2] | TEER before addition [2] [ohm · cm^2] | TEER 15 minutes after addition (agent 0.2 mg/ml in upper compartment) [ohm · cm^2] | TEER 15 minutes after addition (agent 13 mg/ml in upper compartment) [ohm · cm^2] | TEER before addition (baseline immediately before addition of agent at 0.2 mg/ml) [ohm · cm^2] | TEER before addition (baseline immediately before addition of agent at 13 mg/ml) [ohm · cm^2]
1 | Cc1cc(C(C)(C)C)c(O)c(C(C)(C)C)c1 [Butylated hydroxy toluene, butylated hydroxy toluene] | 194 | 633 |  |  |  | 
2 | CCCOC(=O)c1cc(O)c(O)c(O)c1 [Propyl gallate, propyl gallate] |  |  | 629 | −0.6 | 667 | 494
3 | COc1ccc(O)c(C(C)(C)C)c1 [Butylated hydroxy anisole, butylated hydroxy anisole] | 183 | 564 |  |  |  | 
